Data on 35 molecules can be found in the Kinase Knowledgebase extract (Sharma et al. 2016).

For one test, the target named is MAPK14 (human) (UniProt Q16539). Description: Assessment of MAPK14 Kinase Activity.
Sequence of MAPK14 (human) (Q16539 whole entry, looked up): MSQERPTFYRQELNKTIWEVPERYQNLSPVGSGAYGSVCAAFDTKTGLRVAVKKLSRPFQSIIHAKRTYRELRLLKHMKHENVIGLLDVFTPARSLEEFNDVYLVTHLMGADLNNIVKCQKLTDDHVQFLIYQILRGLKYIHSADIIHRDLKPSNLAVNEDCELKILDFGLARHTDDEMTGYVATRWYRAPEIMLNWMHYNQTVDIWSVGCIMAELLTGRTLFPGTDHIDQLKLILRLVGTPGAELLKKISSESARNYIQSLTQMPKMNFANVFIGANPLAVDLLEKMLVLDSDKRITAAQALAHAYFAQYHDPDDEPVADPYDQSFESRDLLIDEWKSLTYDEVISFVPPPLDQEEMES
Conditions: not given
`Cc1cc(-c2cccc(C(=O)Nc3ccc(OCCN4CCOCC4)c4ccccc34)c2)ccc1F`: the IC50 amounted to 488 nM.
Regarding `Cc1nc(Nc2c(C(=O)N3CC[C@@H](O)C3)sc3c2ccc(=O)n3-c2c(F)cccc2F)ccc1F`, the 50% inhibitory concentration (IC50) was 5 to 500 nM.
In the case of `CC(Oc1nncc2cc(Nc3ccc(F)cc3)ccc12)C(F)(F)F` (stereo not given), the IC50 was determined as 9.1 nM.
The same measure, in the same setting: the same measure for `Cc1c(NC(=O)Nc2cc(C(C)(C)C)nn2-c2ccc(F)cc2F)sc(CN2CCOCC2)c1Cl`: under 5000 nM.
On the same count and under the same terms, to `Cc1c(NC(=O)Nc2cc(C(C)(C)C)nn2-c2ccc(F)cc2)sc(CN2CCOCC2)c1Cl` belongs under 5000 nM.
Molecule `Cc1nc(Nc2c(C(=O)N3CCC[C@@H]3CO)sc3c2ccc(=O)n3-c2c(F)cccc2F)ccc1F` returned a 50% inhibitory concentration (IC50) of 5 to 500 nM.
The molecule `O=C(Nc1ccc(Oc2ccnc(NC[C@@H]3CCCO3)n2)c2ccccc12)c1cc(F)cc(N2CCCCC2)c1` returned an IC50 of 2.3 nM.
Same read-out and setting: the same measure for `CCCCC=Cc1cccc(C(=O)Nc2ccc(OCCN3CCOCC3)c3ccccc23)c1`: over 10000 nM; for `CN1CCN(c2[nH]nc(-c3ccc(Cl)cc3)c2-c2ccncc2)CC1`: 50 nM.
Still for that read-out and setting: the same measure for `OC1CCCN(c2[nH]nc(-c3ccc(Cl)cc3)c2-c2ccncc2)C1` (stereo not given): 190 nM; for `O=C(Nc1ccc(OCCN2CCOCC2)c2ccccc12)c1cccc(-c2cccc(F)c2)c1`: 1000 nM; for `Cc1c(F)cc(C(=O)NC2CC2)cc1-c1ccn2c(C(C)(C)N)nnc2c1`: 15.4 nM.
`CC(C)Nc1ncc2c(n1)N(CCO)C(=O)N(c1ccccc1Cl)C2`: the IC50 was under 10000 nM.
The molecule `CONC(=O)c1ccc(C)c(Nc2noc(-c3ccccc3)n2)c1` showed a 50% inhibitory concentration (IC50) of under 50 nM.
Same read-out and setting: the same measure for `CC(C)Nc1ncc2c(n1)N(CC(=O)O)C(=O)N(c1ccccc1Cl)C2`: under 10000 nM.
Take `Cc1c(NC(=O)Nc2nnc(C3CCCO3)s2)sc(CN2CCOCC2)c1Cl` (stereo not given): the IC50 is under 5000 nM.
On to `CC(C)Nc1ncc2c(n1)N(CCS(C)(=O)=O)C(=O)N(c1ccccc1Cl)C2`, for which the IC50 was under 10000 nM.
As to `CSc1nc(-c2ccc(F)cc2)c(-c2ccnc(NC3CCc4ccccc43)c2)[nH]1` (stereo not given), the IC50 was 30 nM.
Regarding `O=C(c1sc2c(ccc(=O)n2-c2c(F)cccc2F)c1Nc1cccc(CO)n1)N1CC[C@@H](O)C1`, the IC50 fell in the range of 5 to 500 nM.
Same read-out and setting: to `CSc1nc(-c2ccc(F)cc2)c(-c2ccnc(N(C)Cc3ccccc3)c2)[nH]1` belongs 870 nM.
Turning to `Cc1ccc(C(=O)NC2CC2)cc1Nc1nc(-c2cccc(C#N)c2)c(C(=O)NCc2ccccc2)s1`, the IC50 lay within 50 to 100 nM.
The same measure, in the same setting: to `CC1CCN(c2[nH]nc(-c3ccc(Cl)cc3)c2-c2ccncc2)CC1` belongs 130 nM.
The molecule `CONC(=O)c1ccc(C)c(Nc2nnc(-c3ccccc3)[nH]2)c1` gave a half-maximal inhibitory concentration (IC50) of under 50 nM.
Molecule `c1ccc(-c2noc(CN3CCCCC3)c2-c2ccnc(NC3CCCCC3)n2)cc1` registered a Ki of 2 nM. This counts as single-digit nanomolar.
Consider `CC(C)(N)C(=O)OCCOc1cc(-c2ccccc2Cl)c2ccc(=O)n(-c3c(Cl)cccc3Cl)c2c1`, for which the IC50 was 0.12 nM.
Same read-out and setting: to `CSc1nc(-c2ccc(F)cc2)c(-c2ccnc(NC3CCCc4ccccc43)c2)[nH]1` (stereo not given) belongs 50 nM; to `Cc1cccc(-c2nc(Nc3cc(C(=O)NC4CC4)ccc3C)sc2C(=O)NCc2ccccc2)c1`, 50 to 100 nM; to `CN(C)C(=O)[C@@H]1CCCN1c1nccc(Oc2ccc(NC(=O)c3cc(F)cc(N4CCCCC4)c3)c3ccccc23)n1`, 126 nM.
In the case of `Cc1cccc(Nc2c(C(=O)N3CCC[C@@H]3CO)sc3c2ccc(=O)n3-c2c(F)cccc2F)n1`, the IC50 fell in the range of 15 to 30 nM.
The same measure, in the same setting: to `Cc1nc(-c2ccccc2)c(-c2ccncc2)o1` belongs 5160 nM.
The molecule `O=C1Nc2nc(Nc3ccc(O)cc3)ncc2CN1c1ccccc1Cl` returned a Kd of 32 nM.
The molecule `CSc1nc(-c2ccc(F)cc2)c(-c2ccnc(N(C)C)c2)[nH]1` came in with a half-inhibitory concentration (IC50) of 210 nM.

The test is the same for the next values; noted with them: concentration not given here.
As for `CC1=C(C(=O)Nc2cc3cn[nH]c3cc2F)C(c2ccc(C(F)(F)F)cc2)CC(=O)N1` (stereo not given), the inhibition was -3%.
Consider `CCn1c(-c2nonc2N)nc2cnc(Oc3cccc(NC(=O)c4ccc(OCCN5CCOCC5)cc4)c3)cc21`, for which the inhibition was -8%.
As to `C[C@@H](N)[C@H]1CC[C@H](C(=O)Nc2ccncc2)CC1`, the inhibition was -3%.

For orientation: IC50 means the concentration needed to halve the response being measured. Low values mean higher potency, high ones lower potency. The term Ki denotes a dissociation constant, usually derived from enzyme kinetics or from competition with a known ligand. Read a high Ki as lower affinity. The term Kd denotes a measure of binding affinity in units of concentration. In general, inhibition refers to the relative decrease from the control value, in per cent.
